{
  "source": "patent US7732401B2",
  "about": "“Inhibitor of TGF-β activation reaction” (Riken, priority 2007, dated 2010)",
  "key": {"[1]": {"system": "active TGF-β1", "experiment": "Amount of active TGF-β1 in conditioned medium of hepatic stellate cells (ELISA)", "type": "cell-based, rat", "details": "for amount of active TGF-β generated into the conditioned medium, of the control / TGF-β (active TGF-β generated into the conditioned medium): Example 1, peptide 1 mM; for TGF-β (active TGF-β generated into the conditioned medium): Table 1; for inhibition of generation of the active TGF-β in the conditioned medium observed in control cells: Example 4, peptide 0.5 mM", "protocol": "(§1) According to the method previously reported (Okuno M. et al., Gastroenterology 2001; 120: 1784-1800), hepatic stellate cells were isolated from the liver of male Wistar rats (body weight: 350 to 400 g; Japan Clea), and the isolated cells were then seeded in a concentration of 1×10^6 cells/dish on a 3.5-cm culture plastic dish. Thereafter, the cells were cultured in 1 ml of Dulbecco's modified Eagle medium (DMEM; manufactured by SIGMA) containing 10% fetal calf serum (FCS; manufactured by GIBCO).\n(§2) A 60 mM aqueous stock solution of each peptide was prepared, and the peptide was then dissolved in a medium to make a final concentration of 1 mM. Until the 3rd day of isolation, the aforementioned cells were treated in a DMEM medium containing 10% FCS. On the 4th day, the medium was exchanged with serum free DMEM containing 0.1% bovine serum albumin (BSA) and each peptide with a final concentration of 1 mM, and the culture was further continued for 2 to 4 days. Thereafter, the culture medium was collected as a conditioned medium, and the amount of active TGF-β1 present in the conditioned medium was measured using an ELISA kit manufactured by PROMEGA. At the same time, the state of the cells was observed under a microscope (DMIRB; manufactured by Leica) and was then photographed.\n(§3) Each peptide was dissolved in a medium to a final concentration of 0.5 mM (approximately 500 μg/ml). At the 1st day of isolation, the aforementioned cells were treated in a DMEM medium containing 10% FCS. On the 2nd day, the medium was changed with serum free DMEM containing 0.1% BSA and each peptide at a final concentration of 0.5 mM, and the culture was further continued for 2 to 7 days. Thereafter, the culture medium was collected as a conditioned medium, and the amount of active TGF-β1 present in the conditioned medium was then quantitated using an ELISA kit manufactured by PROMEGA. At the same time, the state of the cells was observed under a microscope (DMIRB; manufactured by Leica) and photographed."}, "[2]": {"system": "hepatic stellate cells", "experiment": "Transformation (activation) of cultured hepatic stellate cells on a plastic dish, observed under a microscope", "type": "cell-based, rat", "details": "for suppression of activation of hepatic stellate cells (morphological change with disappearance of vitamin A-containing oil droplets): Example 1, peptide 1 mM, FIG. 2; for suppression of activation of hepatic stellate cells (morphological change with disappearance of oil droplets containing vitamin A): Example 4, peptide 0.5 mM, FIG. 7", "protocol": "as §1\nFrom day one of isolation of hepatic stellate cells, they were cultured for 7 days with the following peptides added in the medium; QP peptide (Gln-Ile-Leu-Ser-Lys-Leu-Arg-Leu-Ala-Ser-Pro) (SEQ ID NO: 9); QPA peptide (Gln-Ile-Leu-Ser-Ala-Ala-Ala-Leu-Ala-Ser-Pro) (SEQ ID NO: 10); and a control synthetic peptide consisting of 11 amino acids that is derived from a latent TGF-β1 LAP sequence (Thr-Gly-Val-Val-Arg-Gln-Trp-Leu-Ser-Arg-Gly; this is referred to as T200 peptide) (SEQ ID NO: 11) (please refer to FIG. 1), however anticipated not to influence TGF-β activation reaction because of the sequence being apart from the TGF-β activation control region (Gly51 to Arg110) discovered by the present inventors (International Publication WO2005/023870). […] Influence of each peptide on transformation of hepatic stellate cells (which is also referred to as activation of hepatic stellate cells) induced by culturing them on the plastic dish was observed under a microscope.\nas §2\nIn accordance with the method described in Example 1, the influence of each of the QP peptide, QPA peptide, QPQ peptide and T200 peptide on transformation of the cultured hepatic stellate cells, which occurs by culturing cells on a plastic dish, was observed.\nas §3"}, "[3]": {"system": "TGF-β1", "experiment": "Amount of TGF-β1 in hepatic tissues of LPS-preadministered partially-hepatectomized mice (ELISA)", "type": "in vivo, mouse", "details": "200 μg/head i.v.; for Hepatic TGF-β1 Contents: Table 3", "protocol": "A liver extract was prepared from approximately 100 mg of the hepatic tissues prepared for the use in protein quantitation in 11.2 above, according to the method of Okuno M. et al. (Okuno M. et al., Gastroenterology 2001; 120: 1784-1800). The amount of TGF-β1 in the extract was quantitated using an ELISA kit manufactured by PROMEGA. The quantitated TGF-β1 amount was presented as a pg/mg of protein.\nA liver extract was prepared from approximately 30 mg of the hepatic tissues prepared for the use in protein quantitation in 11.2 above, according to the method of Okuno M. et al. (Okuno M. et al., Gastroenterology 2001; 120: 1784-1800). The amount of TGF-β1 in the extract was determined using an ELISA kit manufactured by PROMEGA. The amount of TGF-β1 was presented as a pg/mg protein of the sample. Other conditions were the same as those described in Example 2."}},
  "note": "“Also recorded” adds a separate entry of the source. Where no end group is shown, it is not given here.",
  "data": [
    {"substance": "N-52QILSAAAAASP62-C (QILSAAALASP) [QPA peptide, mutant of QP peptide with Lys56, Leu57, Arg58 and Leu59 substituted with Ala]", "values": [
      {"measurement": "amount of active TGF-β generated into the conditioned medium, of the control", "setting": "[1]", "value": 2, "unit": "%"},
      {"measurement": "TGF-β (active TGF-β generated into the conditioned medium)", "setting": "[1]", "value": "4 ± 1", "unit": "pg/mL"},
      {"measurement": "inhibition of generation of the active TGF-β in the conditioned medium observed in control cells", "setting": "[1]", "value": 25, "unit": "%"},
      {"measurement": "suppression of activation of hepatic stellate cells (morphological change with disappearance of vitamin A-containing oil droplets)", "setting": "[2]", "value": "significantly suppressed"},
      {"measurement": "suppression of activation of hepatic stellate cells (morphological change with disappearance of oil droplets containing vitamin A)", "setting": "[2]", "value": "significantly suppressed"},
      {"measurement": "hepatic contents of TGF-β1, times higher than the value of the control group", "setting": "[3]; Example 2, LPS + PH", "value": "approximately 1.4 times"},
      {"measurement": "Hepatic TGF-β1 Contents", "setting": "[3]; Example 2, LPS + PH", "value": "10 ± 11", "unit": "pg/mg protein"},
      {"measurement": "hepatic contents of TGF-β1, times higher than the value of the control group", "setting": "[3]; Example 5, LPS + PH, FIG. 11", "value": "~0.7", "unit": "times"}
    ]},
    {"substance": "N-52QILSQQQQASP62-C [QPQ peptide, mutant of QP peptide with Lys56, Leu57, Arg58 and Leu59 substituted with Gln]", "values": [
      {"measurement": "inhibition of generation of the active TGF-β in the conditioned medium observed in control cells", "setting": "[1]", "value": 90, "unit": "%"},
      {"measurement": "suppression of activation of hepatic stellate cells (morphological change with disappearance of oil droplets containing vitamin A)", "setting": "[2]", "value": "significantly suppressed; also recorded: strongest suppressing effect"},
      {"measurement": "hepatic contents of TGF-β1, times higher than the value of the control group", "setting": "[3]; Example 5, LPS + PH, FIG. 11", "value": "approximately 1.6 times"}
    ]},
    {"substance": "QILSKLRLASP [QP peptide]", "values": [
      {"measurement": "inhibition of generation of the active TGF-β in the conditioned medium observed in control cells", "setting": "[1]", "value": 55, "unit": "%"},
      {"measurement": "suppression of activation of hepatic stellate cells (morphological change with disappearance of vitamin A-containing oil droplets)", "setting": "[2]", "value": "weakly suppressing effect"},
      {"measurement": "suppression of activation of hepatic stellate cells (morphological change with disappearance of oil droplets containing vitamin A)", "setting": "[2]", "value": "significantly suppressed"},
      {"measurement": "hepatic contents of TGF-β1, times higher than the value of the control group", "setting": "[3]; Example 5, LPS + PH, FIG. 11", "value": "approximately 1.6 times"}
    ]},
    {"substance": "TGVVRQWLSRG [T200 peptide, reference compound]", "values": [
      {"measurement": "amount of active TGF-β generated into the conditioned medium, of the control", "setting": "[1]", "value": 74, "unit": "%"},
      {"measurement": "TGF-β (active TGF-β generated into the conditioned medium)", "setting": "[1]", "value": "160 ± 19", "unit": "pg/mL"},
      {"measurement": "suppression of activation of hepatic stellate cells (morphological change with disappearance of vitamin A-containing oil droplets)", "setting": "[2]", "value": "did not exhibit such a suppressing effect"},
      {"measurement": "suppression of activation of hepatic stellate cells (morphological change with disappearance of oil droplets containing vitamin A)", "setting": "[2]", "value": "did not exhibit such a suppressing effect"},
      {"measurement": "hepatic contents of TGF-β1, times higher than the value of the control group", "setting": "[3]; Example 2, LPS + PH", "value": "approximately 3 times"},
      {"measurement": "Hepatic TGF-β1 Contents", "setting": "[3]; Example 2, LPS + PH", "value": "20 ± 26", "unit": "pg/mg protein"},
      {"measurement": "hepatic contents of TGF-β1, times higher than the value of the control group", "setting": "[3]; Example 5, LPS + PH, FIG. 11", "value": 3.1, "unit": "times"}
    ]}
  ]
}
